The values that follow come from ChEMBL document CHEMBL1201862, “PubChem BioAssay data set” (2004).

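Protocol summary: plate cells (96-well), add compound at 5 concentrations, incubate 48 h, interpolate endpoints linearly. The concentration for 50% growth inhibition is given as GI50.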 Active and inactive are the calls of the source. Cut-off read from the data, not from the text of the source: active = GI50 up to about 1.1 µM and inactive = higher.

Some test systems named below: SF-268; CAKI-1; U-251; UACC-62; SNB-19; RPMI-8226; EKVX; NCI/ADR-RES; MDA-N; SK-MEL-2; K562; 786-0; BT-549; MCF7; LOX IMVI; OVCAR-5; MOLT-4; HCT-15; CCRF-CEM.
Common to all, as to experiment: NCI anticancer screen, dose series, 48 h

Consider `O=C1C=CC(=O)c2c1ccc1c3ccccc3n(-c3ccccc3[N+](=O)[O-])c21`, for which the GI50 with SF-268 was 2.44 µM (inactive); in the test with CAKI-1 it was 1.47 µM (inactive); in the test with U-251 it was 4.59 µM (inactive); in the test on UACC-62 it was 4.91 µM (inactive); in the test on SNB-19 it was 9.84 µM (inactive); in the test on RPMI-8226, 0.71 µM (active). For the same molecule, the GI50 is 8.22 µM (inactive) in the test with EKVX; 5.05 µM (inactive) in the test on NCI/ADR-RES; 3.04 µM (inactive) in the test on MDA-N; 13.3 µM (inactive) with SK-MEL-2; 0.828 µM (active) in the test with K562; 2.13 µM (inactive) in the test with 786-0. The GI50 is 4.97 µM (inactive) in the test on BT-549; 3.3 µM (inactive) with MCF7; 1.93 µM (inactive) in the test with LOX IMVI; 17.3 µM (inactive) with OVCAR-5; 0.543 µM (active) in the test with MOLT-4; 2.96 µM in the test with HCT-15. The GI50 with CCRF-CEM is 0.181 µM (active).
With `CC(=O)Nc1cc([As](=O)(O)O)ccc1O` [ACETARSONE], the GI50 in the test on SF-268, in the test on CAKI-1, in the test on U-251, in the test on UACC-62, in the test with SNB-19 and with RPMI-8226 was > 100 µM (inactive) throughout. The GI50 in the test with EKVX, in the test on NCI/ADR-RES, in the test with MDA-N, in the test with SK-MEL-2, in the test with K562 and in the test on 786-0 was > 100 µM (inactive) in each case. Also, the GI50 was > 100 µM (inactive) in the test on BT-549; > 100 µM (inactive) with MCF7; > 100 µM (inactive) in the test with LOX IMVI; > 100 µM (inactive) with OVCAR-5; > 100 µM (inactive) with MOLT-4; greater than 100 µM with HCT-15. Besides, in the test on CCRF-CEM, the GI50 is > 100 µM (inactive).
In the case of `O=C(Nc1cnc(O)nc1O)Oc1ccccc1`, the GI50 in the test with SF-268, in the test on CAKI-1, with U-251, with UACC-62, in the test on SNB-19 and with RPMI-8226 was > 100 µM (inactive) each time. Further, the GI50 with EKVX, with NCI/ADR-RES, with MDA-N, with SK-MEL-2, in the test with K562 and in the test with 786-0 was > 100 µM (inactive) in each case. The GI50 in the test with BT-549 is > 100 µM (inactive); with MCF7 it was > 100 µM (inactive); with LOX IMVI, > 100 µM (inactive); in the test on OVCAR-5, > 100 µM (inactive); in the test on MOLT-4 it was > 100 µM (inactive); in the test with HCT-15, greater than 100 µM. For the same molecule, in the test with CCRF-CEM, the GI50 was > 100 µM (inactive).
For the molecule `CCCCC1Cc2cc(O)ccc2-c2n1c1cc(O)ccc1[n+]2C.CCCCC1Cc2cc(O)ccc2-c2n1c1ccc(O)cc1[n+]2C` (configuration not stated), the GI50 is 4.57 µM (inactive) with SF-268; > 100 µM (inactive) in the test on CAKI-1; 1.1 µM (active) in the test with U-251; 24.4 µM (inactive) in the test with UACC-62; 1.49 µM (inactive) in the test on SNB-19; 9.73 µM (inactive) in the test with RPMI-8226. The GI50 with EKVX was 0.476 µM (active); in the test on NCI/ADR-RES, > 100 µM (inactive); in the test on MDA-N, 26.8 µM (inactive); in the test on SK-MEL-2, 32.7 µM (inactive); with K562, 17.7 µM (inactive); in the test on 786-0, 26.5 µM (inactive). The GI50 in the test with BT-549 was 19 µM (inactive); with MCF7 it was 19 µM (inactive); with LOX IMVI, 39 µM (inactive); in the test on OVCAR-5 it was 63.5 µM (inactive); with MOLT-4 it was 49.1 µM (inactive); in the test on HCT-15, 51.8 µM. In addition, in the test with CCRF-CEM, the GI50 is 9.59 µM (inactive).
Consider `CCOC(=O)/C(C#N)=C/c1ccc2c(c1)CC1(C2)Cc2cc(CC)c(C(C)O)cc2C1` (configuration not stated), for which the GI50 in the test on SF-268 was 13 µM (inactive); in the test with CAKI-1, 57.9 µM (inactive); in the test with U-251, 6.35 µM (inactive); with UACC-62, 7.83 µM (inactive); in the test on SNB-19, 15.1 µM (inactive); in the test on RPMI-8226 it was 6.84 µM (inactive). Besides, the GI50 was 57.5 µM (inactive) in the test on EKVX; 8.77 µM (inactive) with NCI/ADR-RES; 2.21 µM (inactive) in the test with MDA-N; 7.21 µM (inactive) in the test on SK-MEL-2; 4.31 µM (inactive) in the test with K562; 17.3 µM (inactive) with 786-0. The GI50 in the test with BT-549 was 10.8 µM (inactive); in the test on MCF7 it was 5.18 µM (inactive); in the test on LOX IMVI, 6.95 µM (inactive); with OVCAR-5 it was 33 µM (inactive); with MOLT-4, 4.59 µM (inactive); in the test on HCT-15, 5.24 µM. In addition, the GI50 in the test on CCRF-CEM is 4.61 µM (inactive).
For the molecule `CC(=O)Nc1nc2c(=O)c3ccccc3sc2s1`, the GI50 in the test with SF-268, with CAKI-1, with UACC-62, in the test with SNB-19, with RPMI-8226 and with EKVX was > 100 µM (inactive) throughout. The GI50 in the test on NCI/ADR-RES, with MDA-N, in the test with SK-MEL-2, in the test with K562, in the test on 786-0 and in the test on BT-549 was > 100 µM (inactive) throughout. For the same molecule, the GI50 in the test with MCF7 was 34.4 µM (inactive); with OVCAR-5, > 100 µM (inactive); with MOLT-4, > 100 µM (inactive); in the test with HCT-15, greater than 100 µM; with CCRF-CEM it was > 100 µM (inactive).
For `Cc1cc2c(cc1-c1cc3c(cc1C)C(C(C)C)=C(O)C(=O)/C3=C\Nc1c(C)n(C)n(-c3ccccc3)c1=O)/C(=C/Nc1c(C)n(C)n(-c3ccccc3)c1=O)C(=O)C(O)=C2C(C)C`, the GI50 with SF-268 was > 100 µM (inactive); with CAKI-1 it was > 100 µM (inactive); in the test with U-251, 28.2 µM (inactive); in the test on UACC-62, > 100 µM (inactive); in the test with SNB-19 it was > 100 µM (inactive); with RPMI-8226 it was 71.9 µM (inactive). Also, the GI50 was 76.9 µM (inactive) in the test with EKVX; > 100 µM (inactive) with NCI/ADR-RES; > 100 µM (inactive) in the test with MDA-N; > 100 µM (inactive) in the test with SK-MEL-2; > 100 µM (inactive) with K562; 62.1 µM (inactive) in the test with 786-0. The GI50 was > 100 µM (inactive) with BT-549; 38.8 µM (inactive) with MCF7; > 100 µM (inactive) in the test on OVCAR-5; 41.2 µM (inactive) in the test with MOLT-4; greater than 100 µM in the test with HCT-15; 33 µM (inactive) with CCRF-CEM.
For the molecule `CC(C)N1CC2CN(Cc3ccccc3)CC(C1)C2=O`, the GI50 with SF-268, in the test on CAKI-1, in the test on U-251, in the test on UACC-62, in the test on SNB-19 and in the test on RPMI-8226 was > 100 µM (inactive) throughout. The GI50 in the test with NCI/ADR-RES, with MDA-N, in the test on SK-MEL-2, with K562, with 786-0 and with BT-549 was > 100 µM (inactive) in each case. Also, the GI50 in the test with MCF7 was > 100 µM (inactive); in the test with LOX IMVI, > 100 µM (inactive); in the test on OVCAR-5, > 100 µM (inactive); in the test on MOLT-4 it was > 100 µM (inactive); with HCT-15 it was greater than 100 µM; in the test on CCRF-CEM, 89.1 µM (inactive).
For `CC[N+](C)(CC)Cc1ccccc1[N+](=O)[O-]`, the GI50 in the test on SF-268 is 59.4 µM (inactive); with CAKI-1, > 100 µM (inactive); in the test on U-251, 53.7 µM (inactive); in the test on UACC-62, > 100 µM (inactive); with RPMI-8226, > 100 µM (inactive); with EKVX, 32.3 µM (inactive). Also, the GI50 in the test with NCI/ADR-RES is > 100 µM (inactive); with MDA-N, > 100 µM (inactive); in the test with SK-MEL-2 it was > 100 µM (inactive); in the test with K562, > 100 µM (inactive); in the test on 786-0, > 100 µM (inactive); in the test on BT-549 it was 36 µM (inactive). For the same molecule, the GI50 in the test on MCF7 was > 100 µM (inactive); with LOX IMVI, > 100 µM (inactive); with OVCAR-5, > 100 µM (inactive); in the test with MOLT-4 it was > 100 µM (inactive); in the test on HCT-15, greater than 100 µM; in the test on CCRF-CEM, > 100 µM (inactive).
In the case of `O=c1[nH]c2ccccc2c2nc3ccccc3n12`, the GI50 with SF-268 is 53.7 µM (inactive); in the test on CAKI-1, 6.37 µM (inactive); with U-251 it was 46.1 µM (inactive); in the test with UACC-62, 6.64 µM (inactive); in the test with SNB-19, > 100 µM (inactive); with RPMI-8226 it was > 100 µM (inactive). The GI50 in the test on EKVX is 3.89 µM (inactive); in the test with NCI/ADR-RES it was 81.1 µM (inactive); in the test with MDA-N it was > 100 µM (inactive); in the test with K562, > 100 µM (inactive); in the test on 786-0, 81.8 µM (inactive); in the test with BT-549, 83 µM (inactive). The GI50 in the test with MCF7 was 21.8 µM (inactive); in the test on LOX IMVI it was > 100 µM (inactive); with OVCAR-5 it was > 100 µM (inactive); in the test on MOLT-4, 36.9 µM (inactive); in the test with HCT-15, greater than 100 µM; in the test on CCRF-CEM it was > 100 µM (inactive).
Turning to `CN(C)/C=N\c1nncc2[nH]nnc12`, the GI50 in the test on SF-268, in the test with CAKI-1, in the test on U-251, in the test on UACC-62, with SNB-19 and in the test on RPMI-8226 was > 100 µM (inactive) in each case. Besides, the GI50 in the test on EKVX, in the test on NCI/ADR-RES, with MDA-N, with SK-MEL-2, in the test with K562 and with 786-0 was > 100 µM (inactive) throughout. The GI50 with BT-549 was > 100 µM (inactive); in the test with MCF7 it was > 100 µM (inactive); in the test on OVCAR-5, > 100 µM (inactive); in the test on MOLT-4, 54.3 µM (inactive); with HCT-15 it was greater than 100 µM; in the test on CCRF-CEM, 26.7 µM (inactive).
